Among the data in ChEMBL document CHEMBL4177688, “Design, synthesis, and evaluation of A-ring-modified lamellarin N analogues as noncovalent inhibitors of the EGFR T790M/L858R mutant” (Bioorg Med Chem, 2017) are IC50 values, retold here.

The target in test [1] is Epidermal growth factor receptor (Homo sapiens, UniProt P00533, L858R/T790M). The test can be described thus: Inhibition of recombinant EGFR (unknown origin) T790M/L858R double mutant preincubated for 30 mins followed by poly (Glu-Tyr) biotinylated peptide substrate addition measured after 30 mins in presence of ATP by ELISA.
Sequence of Epidermal growth factor receptor (Homo sapiens, UniProt P00533, L858R/T790M) (P00533 25-1210 T790M/L858R limits assumed): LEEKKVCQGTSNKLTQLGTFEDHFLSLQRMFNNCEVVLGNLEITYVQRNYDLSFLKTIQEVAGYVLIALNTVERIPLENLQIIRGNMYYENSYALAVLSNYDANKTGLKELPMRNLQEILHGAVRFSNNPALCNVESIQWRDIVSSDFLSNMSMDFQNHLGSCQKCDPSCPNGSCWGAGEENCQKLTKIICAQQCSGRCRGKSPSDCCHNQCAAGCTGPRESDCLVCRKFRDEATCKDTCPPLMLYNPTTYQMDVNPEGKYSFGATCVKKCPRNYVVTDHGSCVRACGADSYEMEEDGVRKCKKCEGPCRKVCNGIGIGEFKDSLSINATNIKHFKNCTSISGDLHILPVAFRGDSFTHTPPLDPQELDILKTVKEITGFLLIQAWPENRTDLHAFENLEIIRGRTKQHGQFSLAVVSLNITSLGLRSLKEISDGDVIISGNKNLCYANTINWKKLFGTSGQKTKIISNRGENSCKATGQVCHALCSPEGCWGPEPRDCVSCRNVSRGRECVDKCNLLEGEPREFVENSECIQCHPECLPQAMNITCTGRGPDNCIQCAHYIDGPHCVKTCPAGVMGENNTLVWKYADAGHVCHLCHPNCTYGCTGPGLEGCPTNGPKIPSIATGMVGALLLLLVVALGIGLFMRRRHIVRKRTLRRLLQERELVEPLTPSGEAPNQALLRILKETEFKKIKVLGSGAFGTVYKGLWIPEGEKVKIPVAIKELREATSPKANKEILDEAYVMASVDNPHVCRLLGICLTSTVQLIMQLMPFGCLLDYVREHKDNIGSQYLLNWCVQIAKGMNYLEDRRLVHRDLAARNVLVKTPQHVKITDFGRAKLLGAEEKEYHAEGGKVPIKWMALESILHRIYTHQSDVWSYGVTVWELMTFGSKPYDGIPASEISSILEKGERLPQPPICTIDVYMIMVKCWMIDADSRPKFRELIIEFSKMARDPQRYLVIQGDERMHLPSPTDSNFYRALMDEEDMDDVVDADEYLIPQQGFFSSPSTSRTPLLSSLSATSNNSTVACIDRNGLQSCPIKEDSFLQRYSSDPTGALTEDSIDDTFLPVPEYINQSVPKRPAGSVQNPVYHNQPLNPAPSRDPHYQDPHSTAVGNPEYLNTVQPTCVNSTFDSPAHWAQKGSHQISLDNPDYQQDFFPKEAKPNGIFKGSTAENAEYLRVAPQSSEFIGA
For test [2], the target named is Epidermal growth factor receptor (Homo sapiens, UniProt P00533). The test is classed as single protein.
Sequence of Epidermal growth factor receptor (Homo sapiens, UniProt P00533) (P00533 whole entry): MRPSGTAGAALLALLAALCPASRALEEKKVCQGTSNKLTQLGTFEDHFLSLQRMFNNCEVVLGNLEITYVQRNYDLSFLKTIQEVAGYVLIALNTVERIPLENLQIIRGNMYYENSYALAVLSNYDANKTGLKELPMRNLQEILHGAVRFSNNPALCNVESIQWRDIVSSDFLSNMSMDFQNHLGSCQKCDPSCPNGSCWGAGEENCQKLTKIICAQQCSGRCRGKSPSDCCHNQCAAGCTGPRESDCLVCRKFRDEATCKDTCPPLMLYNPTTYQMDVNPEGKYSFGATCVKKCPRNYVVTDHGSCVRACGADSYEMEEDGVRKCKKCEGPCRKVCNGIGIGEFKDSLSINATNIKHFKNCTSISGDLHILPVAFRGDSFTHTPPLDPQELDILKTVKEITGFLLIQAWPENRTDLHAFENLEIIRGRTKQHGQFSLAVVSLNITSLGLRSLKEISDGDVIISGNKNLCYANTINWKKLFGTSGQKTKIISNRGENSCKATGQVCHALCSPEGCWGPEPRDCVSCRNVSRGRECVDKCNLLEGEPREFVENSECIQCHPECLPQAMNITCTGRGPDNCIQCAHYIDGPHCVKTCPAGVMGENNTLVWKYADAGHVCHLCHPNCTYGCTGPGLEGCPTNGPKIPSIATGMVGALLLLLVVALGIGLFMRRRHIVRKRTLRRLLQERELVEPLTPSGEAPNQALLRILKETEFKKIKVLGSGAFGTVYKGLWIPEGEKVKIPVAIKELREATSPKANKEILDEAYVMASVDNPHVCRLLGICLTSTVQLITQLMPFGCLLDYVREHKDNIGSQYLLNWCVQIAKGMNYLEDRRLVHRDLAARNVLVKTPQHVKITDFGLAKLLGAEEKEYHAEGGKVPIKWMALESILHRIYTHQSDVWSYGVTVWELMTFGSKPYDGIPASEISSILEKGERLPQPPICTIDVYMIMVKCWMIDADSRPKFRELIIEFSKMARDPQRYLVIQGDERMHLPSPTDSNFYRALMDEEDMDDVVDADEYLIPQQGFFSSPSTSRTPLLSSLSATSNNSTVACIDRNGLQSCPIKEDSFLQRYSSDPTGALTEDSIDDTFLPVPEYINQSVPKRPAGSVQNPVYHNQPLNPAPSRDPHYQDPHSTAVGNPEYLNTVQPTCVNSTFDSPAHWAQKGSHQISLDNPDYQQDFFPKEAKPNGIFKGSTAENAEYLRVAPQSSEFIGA
Description: Inhibition of recombinant wild type EGFR (696 to C-terminal residues) (unknown origin) preincubated for 30 mins followed by poly (Glu-Tyr) biotinylated peptide substrate addition measured after 30 mins in presence of ATP by ELISA

pIC50: −log10 of the molar value.

For the compound `COc1ccc(-c2c3c4cc(OCCN(C)C)c(OCCN(C)C)cc4oc(=O)c3n3ccc4cc(O)c(OC)cc4c23)cc1O`, the pIC50 is 6.63 in test [1] and 6.72 in test [2].
On the same counts, the results for `COc1ccc(-c2c3c4cc(OC)c(OCCCN(C)C)cc4oc(=O)c3n3ccc4cc(O)c(OC)cc4c23)cc1O` are 6.73 and 6.67.
In the case of `COc1ccc(-c2c3c4cc(O)c(OCCCN(C)C)cc4oc(=O)c3n3ccc4cc(O)c(OC)cc4c23)cc1O`, the pIC50 was 7.08 in test [1] and 7.32 in test [2].
On the same counts, the results for `COc1ccc(-c2c3c4cc(OCCCN(C)C)c(OCCCN(C)C)cc4oc(=O)c3n3ccc4cc(O)c(OC)cc4c23)cc1O` are 8.05 and 7.50.
As for `COc1ccc(-c2c3c4cc(OC)c(OCCN(C)C)cc4oc(=O)c3n3ccc4cc(O)c(OC)cc4c23)cc1O`, the pIC50 in test [1] is 6.25; in test [2], 6.23.
On the same counts, the results for `COc1ccc(-c2c3c4cc(OC)c(OC)cc4oc(=O)c3n3ccc4cc(O)c(OC)cc4c23)cc1O` are less than 6.00 and less than 6.00.
Turning to `COc1ccc(-c2c3c4cc(OC)c(OCCCNC(=N)N)cc4oc(=O)c3n3ccc4cc(O)c(OC)cc4c23)cc1O`, the pIC50 in test [1] is 7.41; in test [2], 7.33.
On the same counts, the results for `COc1ccc(-c2c3c4cc(OC)c(OCCNC(=N)N)cc4oc(=O)c3n3ccc4cc(O)c(OC)cc4c23)cc1O` are less than 6.00 and less than 6.00.
For `COc1ccc(-c2c3c4cc(OCCCN5CCOCC5)c(OCCCN5CCOCC5)cc4oc(=O)c3n3ccc4cc(O)c(OC)cc4c23)cc1O`, the pIC50 in test [1] and in test [2] was less than 6.00 each time.
In the case of `COc1ccc(-c2c3c4cc(OCCN(C)C)c(OC)cc4oc(=O)c3n3ccc4cc(O)c(OC)cc4c23)cc1O`, the pIC50 in test [1] is less than 6.00; in test [2], 6.07.
On the same counts, the results for `COc1ccc(-c2c3c4cc(O)c(OC)cc4oc(=O)c3n3ccc4cc(O)c(OC)cc4c23)cc1O` are 6.40 and 6.60.
